The source of these data is patent US4007276A, “Triazolo isoindole derivatives” (Gruppo Lepetit, S.p.A., priority 1973, dated 1977).

Series [1] has as its system female Syrian golden hamsters. Put plainly: anti-fertility activity in pregnant hamsters. It counts as in vivo, hamster (Syrian golden). The settings on record: Mesocricetus auratus, sc, 5 mg/kg s.c., day 4 through day 8, autopsy day 14 of pregnancy, read-out: treated animals in which the number of live fetuses was either eliminated or severely reduced. Here is the method: The anti-fertility activity of these compounds in rats was also confirmed in other species including mice, hamsters, rabbits, dogs, monkeys and baboons. With hamsters, the same criteria and conditions are followed as for testing in rats, with the exception that the animals (female Syrian golden hamsters weighing 100 to 130 g) are treated on day 4 through day 8 with 5 mg/kg s.c. of the test compound and are autopsied on day 14 of pregnancy.

The test system of series [2] is carrageenin induced edema. Put plainly: carrageenin induced edema of the rat hind paw (anti-inflammatory). The note with it: rats. It counts as in vivo. How it is done: The anti-inflammatory activity of some representative compounds of formula I as hereinbefore described was evidenced by means of the carrageenin tests in rats. This test is carried out in the hind paw of the rat which paw has been inflammed by injection of carrageenin according to the technique described by C.A. Winter and coworker, Proc. Soc. Exptl. Biol. Med. III, 554 (1962). In following Table I are reported the percent inhibition of the carrageenin induced edema at the dose level indicated for each compound.

Series [3] relates to female Sprague-Dawley rats. Kind of series: anti-fertility activity in pregnant rats. The format is in vivo, rat (Sprague-Dawley). How it is done:
Representative experiments for assessing anti-fertility activity are carried out with female Sprague-Dawley rats weighing 200-230 g. They were mated with proven fertile males. The presence of sperm in the vagina of these animals is evidence of mating and is also considered as being day one of pregnancy. Pregnancy is confirmed at the time of autopsy by the presence of fetuses or implantation sites in the uterus. Even when animals abort the fetuses, implantation scars remain as evidence that the animal had been pregnant.
[…] These animals were autopsied on day 16 of pregnancy and the uteri were examined for evidence of pregnancy and termination of pregnancy such as implantation sites, live or resorbing fetuses and hemorrage as well as abnormalities of the uterus, placenta or fetuses. A compound is considered to be active if there is a reduction of live fetuses in at least 60% of the treated animals and the presence of implantation sites proves the animals to have been pregnant.

In series [4] the test system is pain threshold of the rats. Put plainly: analgesic activity, Randall and Selitto procedure, pain threshold. It counts as in vivo, rat. The settings on record: 50 mg/kg i.p. How it is done: The analgesic activity of representative compounds as hereinbefore described was assessed in rats by following essentially the procedure described by L. O. Randall and J. J. Selitto, Arch. Int. Pharmacodyn., 111, 409 (1957).

The subject of the next series is conditioned rats. Kind of series: secondary conditioned avoidance response test (anti-anxiety). The format is in vivo, rat. How it is done:
The CNS depressant properties of compounds hereinbefore described were investigated according to the Irwin method and in particular the anti-anxiety effect was evaluated on the basis of the secondary conditioned avoidance response test. A specific anti-anxiety effect was evidenced by administering to conditioned rats doses of 15-60 mg/kg i.p. of representative said compounds of the invention.
Following Table II indicates the ratio of the rats which are deconditioned after administration of predetermined amounts of said representative compounds: […]

Series [5] can be described thus: toxicity, LD50 i.p. in mice. The settings on record: mouse, in vivo, ip.
Series [6] has as its system Mycobacterium tubercolosis H37 Rv. Kind of series: minimal inhibitory concentration, bacterial growth. It counts as cell-based. The settings on record: H37RV, read-out: M.I.C. (minimal inhibitory concentration). How it is done:
In evaluating the antimicrobial utility of representative compounds as hereinbefore described, the minimal concentration of substance inhibiting bacterial growth (M.I.C.=minimal inhibitory concentration) was determined.

The next series has as its system baboons. Kind of series: anti-fertility test in baboons. The format is in vivo, baboon.

≈ marks a conversion by molar mass, not a printed value.

On to `Clc1ccc2c(c1)Cn1nc(-c3ccccc3)nc1-2` [7-Chloro-2-phenyl-5H-s-triazolo[5,1-a]isoindole], for which, in series [1], the responders at 5 mg/kg is at least 60%.

As to `c1ccc(COc2cccc(-c3nc4n(n3)Cc3ccccc3-4)c2)cc1` [2-(m-Benzyloxyphenyl)-5H-s-triazolo[5,1-a]isoindole], the responders at 5 mg/kg in series [1] was at least 60%.

Regarding `Fc1ccc(-c2nc3n(n2)Cc2ccccc2-3)cc1` [2-(p-Fluorophenyl)-5H-s-triazolo[5,1-a]isoindole], in series [1], the responders at 5 mg/kg was at least 60%.

Regarding `FC(F)(F)c1cccc(-c2nc3n(n2)Cc2ccccc2-3)c1` [2-(m-Trifluoromethylphenyl)-5H-s-triazolo[5,1-a]isoindole], in series [1], the responders at 5 mg/kg is at least 60%.

For `CCCCc1nc2n(n1)Cc1ccccc1-2` [a, 2-n-butyl-5H-s-triazolo[5,1-a]isoindole], the “Per Cent Inhibition of the Edema” value in series [2] (100 mg/Kg p.o.) turned out to be 28 Per Cent.

In the case of `CC(=O)N(C(C)=O)c1nc2n(n1)Cc1ccccc1-2` [d, 2-diacetylamino-5H-s-triazolo[5,1-a]isoindole], the “Per Cent Inhibition of the Edema” value in series [2] (50 mg/Kg p.o.) was found to be 34 Per Cent; in series [2] (100 mg/Kg p.o.) it was 53 Per Cent.

Take `COc1ccc2c(c1)-c1nc(-c3ccccc3)nn1C2` [8-Methoxy-2-phenyl-5H-s-triazolo[5,1-a]isoindole]: in series [1], the responders at 5 mg/kg is at least 60%.

For the compound `Cc1cccc(-c2nc3n(n2)Cc2ccccc2-3)c1` [2-(m-Tolyl)-5H-s-triazolo[5,1-a]isoindole], in series [1], the responders at 5 mg/kg was at least 60%.

Regarding `Sc1nc2n(n1)Cc1ccccc1-2` [g, 2-sulfhydryl-5H-s-triazolo[5,1-a]isoindole], the “Per Cent Inhibition of the Edema” value in series [2] (50 mg/Kg p.o.) is 39 Per Cent; in series [2] (100 mg/Kg p.o.) it was 49 Per Cent.

Take `CCOc1cccc(-c2nc3n(n2)Cc2ccccc2-3)c1` [2-(m-Ethoxyphenyl)-5H-s-triazolo[5,1-a]isoindole]: in series [1], the responders at 5 mg/kg was at least 60%. Also, the “% Animals Aborting” value in series [3] (1 mg/kg/day s.c.) is reported as 33.3%; in series [3] (1.25 mg/kg/day s.c.), 62.5%; in series [3] (2.5 mg/kg/day s.c.) it was 85.7%; in series [3] (5 mg/kg/day s.c.) it was 100%.

Regarding `Clc1ccc2c(c1)-c1nc(-c3ccccc3)nn1C2` [8-Chloro-2-phenyl-5H-s-triazolo[5,1-a]isoindole], the responders at 5 mg/kg in series [1] is at least 60%.

As for `c1cncc(-c2nc3n(n2)Cc2ccccc2-3)c1` [2-(3-pyridyl)-5H-s-triazolo[5,1-aisoindole], in series [4], the “increase of the pain threshold of the rats” value came to 70% and the toxic effect result is recorded as “without provoking any toxic effect”.

In the case of `NC(=O)Nc1nc2n(n1)Cc1ccccc1-2` [e, 2-ureido-5H-s-triazolo[5,1-a]isoindole], the “Per Cent Inhibition of the Edema” value in series [2] (100 mg/Kg p.o.) was determined as 29 Per Cent.

Usually LD50 stands for the dose at which mortality reaches 50%. In the case of `Nc1nc2n(n1)Cc1ccccc1-2` [2-Amino-5H-s-triazolo[5,1-a]isoindole], in the series on conditioned rats (30 mg/kg i.p.), the Deconditioned / treated is given as 8/10. This compound also displayed a 50% lethal dose (LD50) in series [5] of 600 mg/kg.

On to `Clc1ccc(-c2nc3n(n2)Cc2ccccc2-3)cc1` [2-(p-Chlorophenyl)-5H-s-triazolo[5,1-a]isoindole], for which the responders at 5 mg/kg in series [1] was at least 60%.

On to `COc1cccc(-c2nc3n(n2)Cc2cc(Cl)ccc2-3)c1` [7-Chloro-2-(m-methoxyphenyl)-5H-s-triazolo[5,1-a]isoindole], for which, in series [1], the responders at 5 mg/kg is at least 60%.

For the compound `Oc1cccc(-c2nc3n(n2)Cc2ccccc2-3)c1` [2-(m-Hydroxyphenyl)-5H-s-triazolo[5,1-a]isoindole], in series [1], the responders at 5 mg/kg is at least 60%.

Take `COc1ccc(-c2nc3n(n2)Cc2ccccc2-3)cc1` [2-(p-Methoxyphenyl)-5H-s-triazolo[5,1-a]isoindole]: in series [1], the responders at 5 mg/kg is at least 60%.

For `COc1cccc(-c2nc3n(n2)Cc2cc(OC)ccc2-3)c1` [7-Methoxy-2-(m-methoxyphenyl)-5H-s-triazolo[5,1-a]isoindole], the responders at 5 mg/kg in series [1] was at least 60%.

On to `Clc1cccc(-c2nc3n(n2)Cc2ccccc2-3)c1` [2-(m-Chlorophenyl)-5H-s-triazolo[5,1-a]isoindole], for which the responders at 5 mg/kg in series [1] is at least 60%.

Regarding `CCOC(=O)NC(=S)Nc1nc2n(n1)Cc1ccccc1-2` [2-carbethoxythioureido-5H-s-triazolo[5,1-a]isoindole], the MIC in series [6] was found to be 5 µg/mL (≈ 16.5 µM).

As to `CC(=O)Nc1nc2n(n1)Cc1ccccc1-2` [c, 2-acetamido-5H-s-triazolo[5,1-a]isoindole], the “Per Cent Inhibition of the Edema” value is reported as 35 Per Cent in series [2] (50 mg/Kg p.o.) and 54 Per Cent in series [2] (100 mg/Kg p.o.).

In the case of `COc1cccc(-c2nc3n(n2)Cc2ccc(Cl)cc2-3)c1` [8-Chloro-2-(m-methoxyphenyl)-5H-s-triazolo[5,1-a]isoindole], the responders at 5 mg/kg in series [1] was at least 60%.

On to `Fc1cccc(-c2nc3n(n2)Cc2ccccc2-3)c1` [2-(m-Fluorophenyl)-5H-s-triazolo[5,1-a]isoindole], for which the responders at 5 mg/kg in series [1] is at least 60%.

Take `CN(C)c1cccc(-c2nc3n(n2)Cc2ccccc2-3)c1` [2-(m-Dimethylaminophenyl)-5H-s-triazolo[5,1-a]isoindole]: in series [1], the responders at 5 mg/kg is at least 60%.

Consider `COc1cccc(-c2nc3n(n2)Cc2ccc(OC)cc2-3)c1` [8-Methoxy-2-(m-methoxyphenyl)-5H-s-triazolo[5,1-a]isoindole], for which the responders at 5 mg/kg in series [1] was at least 60%. For the same compound, the figures for the “% Animals Aborting” value in series [3] (2.5 mg/kg/day s.c.) and in series [3] (5 mg/kg/day s.c.) were 57.1% and 100%, respectively.

With `c1ccc(-c2nc3n(n2)Cc2ccccc2-3)cc1` [2-Phenyl-5H-s-triazolo[5,1-a]isoindole], the responders at 5 mg/kg in series [1] is at least 60%. The “% Animals Aborting” value in series [3] (1.25 mg/kg/day s.c.) was determined as 20%; in series [3] (2.5 mg/kg/day s.c.), 80%.

Take `CCCOc1cccc(-c2nc3n(n2)Cc2ccccc2-3)c1` [2-(m-Propoxyphenyl)-5H-s-triazolo[5,1-a]isoindole]: the responders at 5 mg/kg in series [1] is at least 60%. The “% Animals Aborting” value is 20% in series [3] (1 mg/kg/day s.c.), 60% in series [3] (1.25 mg/kg/day s.c.), 77.8% in series [3] (2.5 mg/kg/day s.c.) and 100% in series [3] (5 mg/kg/day s.c.).

As for `COc1cccc(-c2nc3n(n2)Cc2ccccc2-3)c1` [2-(m-Methoxyphenyl)-5H-s-triazolo[5,1-a]isoindole], in series [1], the responders at 5 mg/kg was at least 60%. Also, the “% Animals Aborting” value is 0% in series [3] (0.155 mg/kg/day s.c.); 0% in series [3] (0.31 mg/kg/day s.c.); 38.5% in series [3] (0.62 mg/kg/day s.c.); 70.8% in series [3] (1.25 mg/kg/day s.c.); 100% in series [3] (2.5 mg/kg/day s.c.); 100% in series [3] (5 mg/kg/day s.c.). Also, in the series on baboons, the induced abortion entry was “induced abortion in every animal studied”.

Turning to `O=C(Nc1nc2n(n1)Cc1ccccc1-2)c1ccccc1` [f, 2-benzoylamino-5H-s-triazolo[5,1-a]isoindole], the “Per Cent Inhibition of the Edema” value in series [2] (100 mg/Kg p.o.) is listed as 28 Per Cent.

Turning to `Cc1ccc(-c2nc3n(n2)Cc2ccccc2-3)cc1` [2-(p-Tolyl)-5H-s-triazolo[5,1-a]isoindole], the responders at 5 mg/kg in series [1] was at least 60%.

Take `Cc1nc2n(n1)Cc1ccccc1-2` [2-Methyl-5H-s-triazolo[5,1-a]isoindole]: the Deconditioned / treated is listed as 6/10 in the series with conditioned rats (15 mg/kg i.p.) and 7/10 with conditioned rats (30 mg/kg i.p.). The compound further had an LD50 in series [5] of over 400 mg/kg.

Regarding `c1ccc2c(c1)Cn1nc(-c3ccc4c(c3)OCO4)nc1-2` [2-(3,4-Methylenedioxyphenyl)-5H-s-triazolo[5,1-a]isoindole], the responders at 5 mg/kg in series [1] is at least 60%. Further, the “% Animals Aborting” value in series [3] (1 mg/kg/day s.c.) worked out at 0%; in series [3] (1.25 mg/kg/day s.c.), 25%; in series [3] (2.5 mg/kg/day s.c.), 66.7%; in series [3] (5 mg/kg/day s.c.), 100%.

As to `COc1cccc(-c2nc3n(n2)Cc2cc(OC)c(OC)cc2-3)c1` [7,8-Dimethoxy-2-(m-methoxyphenyl)-5H-s-triazolo[5,1-a]isoindole], the responders at 5 mg/kg in series [1] is at least 60%.
